Cc1c(N)cccc1C(=O)O
solubility (mole fraction)
Details	288.15 K	293.15 K	298.15 K	303.15 K	308.15 K	313.15 K	318.15 K	323.15 K	328.15 K
in acetonitrile	0.0004	0.000499	0.000728	0.000986	0.00126	0.0017	0.00202	0.00251	0.00307
in ethanol	0.00373	0.00422	0.00496	0.00628	0.00749	0.00891	0.0105	0.0124	0.0151
in ethyl acetate	0.000961	0.00107	0.00135	0.00173	0.0022	0.00283	0.0035	0.00436	0.00524
in isobutanol	0.00112	0.00132	0.00191	0.00254	0.00322	0.00427	0.00534	0.0069	0.00839
in isopropanol	0.00196	0.00228	0.00298	0.00386	0.00494	0.00629	0.0079	0.00991	0.0123
in methanol	0.00532	0.0059	0.00682	0.00844	0.00979	0.0115	0.0136	0.0159	0.0178
in methyl acetate	0.000975	0.00127	0.00179	0.0024	0.00292	0.00347	0.00428	0.00514	0.00571
in n-butanol	0.00236	0.00269	0.00333	0.00442	0.00535	0.00659	0.0079	0.00962	0.0115
in n-propanol	0.00245	0.00277	0.00341	0.00444	0.00542	0.00672	0.00824	0.0101	0.0123
in n-propyl acetate	0.000796	0.000942	0.00109	0.00142	0.00176	0.00225	0.00286	0.00368	0.0047
in sec-butanol	0.00178	0.00209	0.00285	0.00388	0.00513	0.00675	0.00858	0.0111	0.0138
in water	0.000581	0.000588	0.00062	0.000669	0.000718	0.00079	0.000887	0.00098	0.00105

Reference: BigSolDB 2.1
